# Data: ChEMBL document CHEMBL1157539, “Thousands of chemical starting points for antimalarial lead identification” (Nature, 2010)
# System: Plasmodium falciparum
# Assay: GSK_TCMDC: Inhibition of Plasmodium falciparum 3D7 in whole erythrocytes, using parasite LDH activity as an index of growth.
# Type: functional, organism-based
SMILES,"XC50 (Plasmodium falciparum, 3D7)",XC50
CCC(COCc1ccc(Cl)cc1)N(C)CCN(C)C(CC)COCc1ccc(Cl)cc1 (stereo unspecified),1060 nM,
O=[N+]([O-])c1ccc2nccnc2c1,1070 nM,
O=C(Nc1cccc(-c2cc(-c3c(Cl)cccc3Cl)no2)c1)c1cncc(-c2cccs2)c1,952 nM,
CCCn1c(Sc2ccc(C#N)c([N+](=O)[O-])c2)nnc1-c1ccc(OC)cc1,865 nM,
Cc1ccc(-c2nnc(-c3ccc(C(=O)NC4CCN(Cc5ccc(C#N)cc5)CC4)cc3)o2)cc1Br,852 nM,
COc1ccccc1C1CCN(C2CCC(NC(=O)/C=C/c3cc(F)c(F)cc3F)CC2)CC1 (stereo unspecified),1600 nM,
CN(C)c1ccc(-c2ccc(C(=O)NC3CCN(Cc4ccc(F)cc4)CC3)s2)cc1,1050 nM,
CN(c1cc(NC(=O)c2cccs2)ccn1)C1CCN(Cc2ccccc2)CC1,1020 nM,
C=C[C@]1(C)C[C@@H](OC(=O)c2cncn(COC)c2=O)[C@]2(C)[C@H](C)CC[C@]3(CCC(=O)[C@H]32)[C@@H](C)[C@@H]1O,878 nM,
CCCN1CCN(CCNC(=O)c2cccc(Nc3nccc(Nc4ccc(Oc5ccccc5)cc4)n3)c2)CC1,239 nM,
COc1ccccc1CNC(=O)CCn1c(=O)[nH]c2ccsc2c1=O,1040 nM,
COc1ccc(CNC2CCN(C)CC2)cc1-c1ccc(S(=O)(=O)NCCc2ccccn2)s1,624 nM,
Cc1ccc(C(=O)NC2CC2)cc1-c1ccc2c(cnn2S(=O)(=O)c2ccc(F)cc2)c1,289 nM,
CCCSc1nc2c(c(=O)n1CCc1ccccc1)C1(CCCC1)Cc1ccccc1-2,702 nM,
O=c1cc(NCCCNCc2cc(Br)cs2)[nH]c2ccccc12,1060 nM,
O=C(/C=C/c1ccc(Cl)c(Cl)c1)N1CCC(CN2CCC(c3c[nH]c4ccc(NS(=O)(=O)c5cccs5)cc34)CC2)CC1,218 nM,
CCOC(=O)c1c(CNc2ccncc2)n(C)c2cc(Br)c(OC(C)=O)cc12,370 nM,
COc1ccc2nccc([C@@H](O)CN3CCC(NCc4cc5ccccc5o4)CC3)c2c1,658 nM,
Cc1cc(N[C@@H](Cc2ccccc2)C(=O)Nc2ccccc2)nc(NCCc2ccccc2)n1,871 nM,
Cc1cc(O)cc2c(C3CCN(CC4CCN(C(=O)/C=C/c5ccc(Cl)c(Cl)c5)CC4)CC3)c[nH]c12,1090 nM,
O=C(Nc1ccc(Cl)cc1)Nc1ccc(-c2cccc(-c3nc4ccccc4[nH]3)c2)cc1,157 nM,
COc1ccccc1CNC(=O)C(=O)Nc1c(-c2ccccc2)[nH]c2ccccc12,737 nM,
CCOc1ccc(-c2nonc2NC(=O)c2ccc(F)cc2)cc1OCC,327 nM,
COC(=O)Cn1c2ccccc2c2c(N)c(C(=O)OC)c(C)nc21,938 nM,

SMILES,"XC50 (Plasmodium falciparum, 3D7)",XC50
CCCCc1nc2nc(N)nc(N)c2cc1CCC,308 nM,
Cc1cc(C2CCN(CCCCNC(=O)c3ccc(-c4ccc(C(F)(F)F)cc4)cc3)CC2)c(C)cc1OCCO,885 nM,
COc1nc2c(CCN3CC[C@H](NCc4ccc5c(c4)NC(=O)CO5)[C@H](O)C3)c(Cl)cnc2cc1F,1020 nM,
COc1ccc2nccc(N3CCC(SCCNCc4ccc5c(n4)NC(=O)CS5)C3)c2n1 (stereo unspecified),253 nM,
Cc1cccc2[nH]cc(C3CCN(CC4CCC(NC(=O)/C=C/c5ccc(Cl)c(Cl)c5)CC4)CC3)c12 (stereo unspecified),163 nM,
CCc1nc(N)nc(N)c1-c1ccc2c(c1)CCCC2,196 nM,
COc1ccc(C[C@@H](C)NC[C@H](O)c2cccc(Cl)c2)cc1F,,992 nM
O=C(Cc1ccccc1)NC(c1ccco1)c1cc(Cl)c2cccnc2c1O (stereo unspecified),691 nM,
Cc1c(F)cc(C(=O)NC2CC2)cc1-c1ccc2c(cnn2S(=O)(=O)c2ccc(Cl)s2)c1,391 nM,
Cc1cc(NC(=O)CCCN2CCN(c3cccc(Cl)c3Cl)CC2)ccc1N1CCN(C(C)C)CC1,757 nM,
OC(c1cccc2ccccc12)C1CN(CCc2ccccc2)CCC1(O)c1ccccc1 (stereo unspecified),145 nM,
COc1cc(OCCCCCCON2C(=N)N=C(N)NC2(C)C)cc(OC)c1OC,3.2 nM,
O=C(Nc1ccc(N2CCNCC2)nc1)c1oc(-c2ccccc2)nc1C(F)(F)F,981 nM,
COc1cc2nc(N3CCC(CNC(=O)c4ccc(-c5ccc(C(F)(F)F)cc5)cc4)CC3)nc(N)c2cc1OC,127 nM,
COc1ccc2c(NN=Cc3ccccc3Cl)ccnc2c1,622 nM,
CCC(=C(CC)c1ccc(O)c(CNC2CCCCC2)c1)c1ccc(O)c(CNC2CCCCC2)c1,152 nM,
COc1ccc2nccc([C@@H](O)CN3CCC(NC(=O)c4cccc(C(=O)c5ccccc5)c4)CC3)c2c1,685 nM,
CN(C(=O)/C=C/c1ccccc1F)C1CCN(CCCCCNC(=O)/C=C/c2ccc(Cl)c(Cl)c2)CC1,509 nM,
CCOc1ccc2[nH]c(C)cc(=NN=Cc3cccc(C)n3)c2c1,754 nM,
CN1CCC(C(=O)N(Cc2ccc(-c3ccc(CNCCc4ccc(S(C)(=O)=O)cc4)cn3)cc2)Cc2cccc(F)c2)CC1,706 nM,
CN1C(=O)[C@H](NC(=O)[C@@H](Cc2ccccc2)NC(=S)Nc2ccccc2)N=C(c2ccccc2)c2ccccc21,855 nM,
CCCC[C@@H](C(=O)NCc1ccccc1C(F)(F)F)N1C(=O)CCC1C(=O)Nc1ccc([N+](=O)[O-])cc1 (stereo partly specified),848 nM,
CCCN(CCC)S(=O)(=O)c1ccc(C(=O)Nc2nc3ccc(-c4cc(=O)[nH]c(Nc5ccccc5Cl)n4)cc3[nH]2)cc1,594 nM,
N#Cc1ccc(-c2ccc(OCC(O)CN3CCCN(C(=O)C(c4ccc5c(c4)OCO5)N4CCN(C/C=C/c5ccccc5)CC4)CC3)cc2)cc1 (stereo unspecified),654 nM,

SMILES,"XC50 (Plasmodium falciparum, 3D7)",XC50
COc1cc(CNCCCNc2nc3ncccc3[nH]2)c2[nH]cc(Br)c2c1,1160 nM,
COc1ccc2nccc([C@@H](O)CN3CCC(NCc4ccc5c(c4)oc(=S)n5C)CC3)c2c1,187 nM,
COc1ccccc1CCN(C)CCN1CCC(NC(=O)c2ccc(-c3ccc(C(F)(F)F)cc3)cc2)CC1,1030 nM,
Cc1nc2nc(N)nc(N)c2c(C)c1Cc1ccccc1Br,60.2 nM,
COc1ccc(-c2nc(NC(=O)Cc3cccc(OC)c3)sc2C)cc1,237 nM,
COc1ccc2c(N/N=C/c3cccc([N+](=O)[O-])c3)ccnc2c1,846 nM,
O=C(C1CCN(C(c2ccccc2)c2ccc(Cl)c(Cl)c2)CC1)N1CC=CC1 (stereo unspecified),725 nM,
CC(C)CCn1c(Sc2ccc(C#N)c([N+](=O)[O-])c2)nnc1-c1cccc(Cl)c1,673 nM,
Cc1cc(N2CCOCC2)nc2ccc(NC(=O)c3cccc([N+](=O)[O-])c3)cc12,890 nM,
Cc1ccc(F)c(CN2CCC(N3CC(c4ccccc4)(c4ccccc4)OC3=O)CC2)c1Cl,593 nM,
Cc1ccc2nc3ccccc3c(NCCN3CCN(C)CC3)c2c1,587 nM,
Fc1cc(Cl)ccc1Nc1ccnc2cc(-c3ccc(CNCCN4CCOCC4)o3)ccc12,277 nM,
O=C(/C=C/c1ccc(Cl)c(Cl)c1)NCCCCCN1CCC(NC(=S)Nc2ccc(Cl)cc2Cl)CC1,738 nM,
OCC1CCN(Cc2cccc(C#Cc3cc4ncnc(Nc5ccc(OCc6cccc(F)c6)c(Cl)c5)c4s3)n2)CC1,552 nM,
Cn1nc(-c2ccccc2F)c2cc(C(=O)NC3CCN(Cc4ccccc4)CC3)sc21,789 nM,
COc1ccc2c(N/N=C/c3cccc([N+](=O)[O-])c3)cc(C)nc2c1,557 nM,
Cc1cc(-c2nc3cc(C(=N)N)ccc3[nH]2)c(C)cc1-c1nc2cc(C(=N)N)ccc2[nH]1,397 nM,
COc1ccc(CNCc2ccc(-c3ccc(-c4nc5cc(C(F)(F)F)ccc5[nH]4)s3)cc2)cc1,174 nM,
Nc1nc(N)c2c(Sc3ccccc3)cccc2n1,645 nM,
CC(C)C[C@H](Nc1ccnc(NCC2CCCCC2)n1)C(=O)NCCOc1ccccc1,1020 nM,
COc1cc2nc(Nc3ccc(C)cc3)nc(Nc3ccc(C)cc3)c2cc1OC,139 nM,
Nc1c2c(nc3ccc(Oc4ccc(Cl)cc4)cc13)CCCC2,972 nM,
CCCCc1cc(NCc2ccncc2)nc(Nc2ccc(C)cc2)n1,794 nM,
Cc1ccc(C(C#N)c2ccc3c(C(F)(F)F)cc(C(F)(F)F)nc3n2)cc1 (stereo unspecified),700 nM,

SMILES,"XC50 (Plasmodium falciparum, 3D7)",XC50
Cc1nc(C)c(-c2ccc(Oc3ccc(OC(F)(F)F)cc3)cc2)c(O)c1I,128 nM,
O=C(Cn1c(SCc2cccc(F)c2F)cc(=O)c2ccccc21)N(Cc1ccc(-c2ccc(C(F)(F)F)cc2)cc1)C1CCN(CCO)CC1,1250 nM,
CN1CCN(Cc2cccc(Nc3nccc(Nc4ccc(Oc5ccccc5)cc4)n3)c2)CC1,296 nM,
Cc1cc(=NN=Cc2ccc(F)cc2)c2ccc(F)cc2[nH]1,950 nM,
Cn1c(Nc2nnc(C3CC3)s2)nc2cc(Nc3ccnc(Nc4cccc(CS(C)(=O)=O)c4)n3)ccc21,681 nM,
Oc1ccccc1CN1CCC2(CCCN(Cc3ccccc3F)C2)C1 (stereo unspecified),679 nM,
O=C(N[C@H]1CCN(Cc2ccc(OCCN3CCCC3)c3ccccc23)C1)c1ccc(Cl)c(Cl)c1,746 nM,
C=C[C@]1(C)C[C@@H](OC(=O)NC(=O)CCCS(=O)(=O)c2nnc(C)s2)[C@]2(C)[C@H](C)CC[C@]3(CCC(=O)[C@H]32)[C@@H](C)[C@@H]1O,31.5 nM,
Fc1ccccc1-c1cc(Nc2ccncc2)nc(-c2cccnc2)n1,258 nM,
COc1ccc(CNCc2ccc(-c3cccc(-c4nc5ccccc5[nH]4)c3)cc2)cc1,214 nM,
Cc1cccc(Nc2nccc(NCC(O)c3cccc(C(F)(F)F)c3)n2)c1 (stereo unspecified),514 nM,
c1cc(C2=NC3CCCCC3N2)ccc1OCCCOc1ccc(C2=NC3CCCCC3N2)cc1 (stereo unspecified),731 nM,
Cc1cc(CN2CC[C@H](NC(=O)c3ccc(Cl)c(Cl)c3)C2)ccc1OC1CCN(Cc2ccccc2)CC1,906 nM,
O=C(/C=C/c1ccc(Cl)c(Cl)c1)NCCCCCN1CCCN(C(=O)Nc2ccc(F)c(F)c2)CC1,803 nM,
CC(C)(C(=O)Nc1ccc(C2CCC(NCC3CC3)CC2)c(Cl)c1)c1ccc(C(F)(F)F)cc1 (stereo unspecified),965 nM,
Cc1cccc2nc(-c3ccc(-c4cccc(CN5CCN(CCO)CC5)c4)cc3)[nH]c12,730 nM,
CCNc1cc(C(=O)N[C@@H](Cc2ccccc2)[C@H](O)CNCCc2ccccc2)cc(N2CCCC2=O)c1,844 nM,
CCC[C@@H]([C@@H](Cc1ccc(C)s1)C(=O)N[C@@H](CNC(C)=O)C(=O)Nc1nccs1)N(O)C=O,176 nM,
CC(=O)c1sc2ccccc2c1O,880 nM,
COc1ccc(NC(=O)[C@H](CC(C)C)Nc2cc(C)nc(NCc3cccc(C)c3)n2)cc1,1020 nM,
COc1ccc2nccc(NC(=O)N3CCC(NCCOc4cc(F)cc(F)c4)CC3)c2n1,770 nM,
O=C(/C=C/c1ccc(Cl)c(Cl)c1)N1CCC(CN2CCC(Cc3nc4ccccc4[nH]3)CC2)CC1,254 nM,
CC(=O)Nc1ccc2[nH]cc(C3CCN(CC4CCC(NC(=O)/C=C/c5ccc(Cl)c(Cl)c5)CC4)CC3)c2c1 (stereo unspecified),719 nM,441 nM
